Reference: publication PMC6072100, “Exploring the links between peptoid antibacterial activity and toxicity” (MedChemComm, 2017)
Square brackets hold non-standard residues; d marks the D form. Peptide text beside a SMILES is read from it. Gly(Nα-4-Cl-benzyl) = O=C(O)CNCc1ccc(Cl)cc1; Gly(N-(CH2)6NH2) = NCCCCCCNCC(=O)O; Nspe = C[C@H](NCC(=O)O)c1ccccc1; Nphe = O=C(O)CNCc1ccccc1; Nlys = NCCCCNCC(=O)O

Legend:
[1] = Cytotoxicity assay with HepG2 (alamarBlue); format: cell-based, human; details: human, HepG2 cells
Experimental: The activity of our peptoid library was assessed against both bacterial and mammalian cells to gain a broader understanding of the factors that lead to effective and selective antimicrobial peptoids. We screened for broad-spectrum antibacterial activity against Gram-negative (Escherichia coli and Pseudomonas aeruginosa) and Gram-positive (Staphylococcus aureus and S. epidermidis) bacteria. The toxicity of the library was also assessed against two mammalian cell lines; HaCaT spontaneously transformed aneuploid keratinocytes were employed to model toxicity against human skin cells and HepG2, a cell line derived from a human liver carcinoma, were used as a study on polarised human hepatocytes. Detailed methods for these assays can be found in the ESI. ^‡ […]
Please note – ED50, the median effective dose, was defined as the dose that kills 50% of cells.
Cytotoxicity analyses were performed in 96-well plates (Costar, Fisher Scientific) using alamarBlue® (Invitrogen) for cell viability detection using a modified protocol as described previously. HepG2 or HaCaT cells were subcultured at 37 °C, 5% CO2 in DMEM high glucose supplemented with heat-inactivated foetal bovine sera (FBS, 10%; Biosera Ltd) and penicillin/streptomycin (P/S, 1%). Cells were counted using a Neubauer Improved Haemocytometer. HepG2 cells were seeded 1 day prior to treatment in 96 well plates at a concentration of 2 × 10^5 cells per mL in 100 μL of medium (2 × 10^4 cells per well). Then cells were pre-incubated with the compounds in triplicate in a dilution series in triplicate from 2–100 μM (5 mM stock solutions in DMSO diluted from 100 μM to 3 μM; untreated cells with DMSO as a negative control) in 50 μl of the media for 1 hour. Afterwards, 40 μL were removed from each well before the addition of 90 μL of the media, followed by incubation for 24 hours at 37 °C, 5% CO2. Then, 10 μL of alamarBlue® (Invitrogen) was added to each well before a 2 hour incubation prior to assessing cell viability using a fluorescent plate reader (Biotek; Ex 560 nm/Em 600 nm). All data were measured in triplicate on a minimum of two occasions to ensure a robust data set was collected. The ED50 values were calculated from the dose response results achieved from the serial dilutions.
Cytotoxicity assay with HepG2
Cytotoxicity analyses were performed in 96-well plates (Costar, Fisher Scientific) using alamarBlue® (Invitrogen) for cell viability detection using a modified protocol as previously described. The HepG2 cells were grown at 37 °C, 5% CO2 in DMEM high glucose supplemented with heat-inactivated foetal bovine sera (FBS, 10%; Biosera Ltd) and penicillin/streptomycin (P/S, 1%). Cells were counted using a Neubauer Improved Haemocytometer. HepG2 cells were seeded 1 day prior to treatment in 96 well plates at a concentration of 2x10^5 cells/mL in 100 µL of medium (2x10^4 cells/well). Then cells were pre-incubated with the compounds in triplicate (5 mM stock solutions in DMSO diluted from 100 µM to 3 µM; untreated cells with DMSO as a negative control) in 50 µl of the media for 1 hour.
Afterwards, 40 µL were removed from each well before the addition of 90 µL of the media, followed by incubation for 24 hours at 37 °C, 5% CO2. Then, 10 µL of alamarBlue® (Invitrogen) was added to each well before a 2 hour incubation prior to assessing cell viability using a fluorescent plate reader (Biotek; Ex 560 nm / Em 600 nm). All data was measured in triplicate on a minimum of two occasions to ensure a robust data set was collected. The ED50 values were calculated from the dose response results achieved from the serial dilutions. […]
5% CO2 in DMEM high glucose supplemented with heat-inactivated foetal bovine sera (FBS, 10%; Biosera Ltd) and penicillin/streptomycin (P/S, 1%). Cells were counted using a Neubauer […]
Empty wells were filled with 100 µL PBS. After 24 hours, cells were incubated with the compounds in a dilution series in triplicate from 2 – 100 µM (5 mM stock solutions in DMSO […]

[2] = Skin cell toxicity assay with HaCaT (alamarBlue); format: cell-based, human; details: human, HaCaT cells (keratinocytes)
How it was run: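 HaCaT cells seeded at 2x10^4 per well 24 hours before 1-hour exposure to a 2–100 µM triplicate dilution series in DMEM high glucose with 10% FBS at 37 °C, 5% CO2. Viability assessed with alamarBlue; ED50 defined as dose killing 50% of cells, derived from dose-response data.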

[3] = dose that kills 50% of cells, 2–100 μM, 1 h with compound then 24 h, alamarBlue, read-out: ED50 HepG2
[4] = dose that kills 50% of cells, 2–100 μM, 1 h with compound then 24 h, alamarBlue, read-out: ED50 HaCaT

| Structure (SMILES) | CC50 at 24 h ([1]; ED50 HepG2) [µM] | CC50 at 24 h ([2]; ED50 HaCaT) [µM] | CC50 at 24 h [1, 3] [µM] | CC50 at 24 h [2, 4] [µM] |
| --- | --- | --- | --- | --- |
| NCCCCNCC(=O)N(CC(=O)N(CC(=O)N(CCCCN)CC(=O)N(CC(=O)N(CC(=O)N(CCCCN)CC(=O)N(CC(=O)N(CC(N)=O)Cc1cccc(F)c1)Cc1cccc(F)c1)Cc1cccc(F)c1)Cc1cccc(F)c1)Cc1cccc(F)c1)Cc1cccc(F)c1 [Peptoid 25, (NLysNmfbNmfb)3] | 43 | 64 | – | – |
| NCCCCNCC(=O)N(CC(=O)N(CC(=O)N(CCCCN)CC(=O)N(CC(=O)N(CC(=O)N(CCCCN)CC(=O)N(CC(=O)N(CC(N)=O)Cc1ccc(Cl)cc1)Cc1ccc(Cl)cc1)Cc1ccc(Cl)cc1)Cc1ccc(Cl)cc1)Cc1ccc(Cl)cc1)Cc1ccc(Cl)cc1 [Peptoid 21, (NLysNpcbNpcb)3] (H-[Nlys][Gly(Nα-4-Cl-benzyl)][Gly(Nα-4-Cl-benzyl)][Nlys][Gly(Nα-4-Cl-benzyl)][Gly(Nα-4-Cl-benzyl)][Nlys][Gly(Nα-4-Cl-benzyl)][Gly(Nα-4-Cl-benzyl)]-NH2) | 23 | 22 | – | – |
| C[C@@H](c1ccccc1)N(CC(N)=O)C(=O)CN(Cc1ccc(F)cc1)C(=O)CN(CCCCN)C(=O)CN(C(=O)CN(Cc1ccc(F)cc1)C(=O)CN(CCCCN)C(=O)CN(C(=O)CN(Cc1ccc(F)cc1)C(=O)CN(CCCCN)C(=O)CN(C(=O)CN(Cc1ccc(F)cc1)C(=O)CNCCCCN)[C@@H](C)c1ccccc1)[C@@H](C)c1ccccc1)[C@@H](C)c1ccccc1 [Peptoid 26, (NLysNpfbNspe)4] | 26 | 20 | – | – |
| NCCCCNCC(=O)N(CC(=O)N(CC(=O)N(CCCCN)CC(=O)N(CC(=O)N(CC(=O)N(CCCCN)CC(=O)N(CC(=O)N(CC(=O)N(CCCCN)CC(=O)N(CC(=O)N(CC(N)=O)Cc1ccccc1)Cc1ccccc1)Cc1ccccc1)Cc1ccccc1)Cc1ccccc1)Cc1ccccc1)Cc1ccccc1)Cc1ccccc1 [Peptoid 4, (NLysNpheNphe)4] (H-[Nlys][Nphe][Nphe][Nlys][Nphe][Nphe][Nlys][Nphe][Nphe][Nlys][Nphe][Nphe]-NH2) | 100 | 36 | – | – |
| NCCCCCCNCC(=O)N(CC(=O)N(CC(=O)N(CCCCCCN)CC(=O)N(CC(=O)N(CC(N)=O)Cc1ccccc1)Cc1ccccc1)Cc1ccccc1)Cc1ccccc1 [Peptoid 3, (NahNpheNphe)2] (H-[Gly(N-(CH2)6NH2)][Nphe][Nphe][Gly(N-(CH2)6NH2)][Nphe][Nphe]-NH2) | 100 | 100 | – | – |
| C[C@@H](c1ccccc1)N(CC(N)=O)C(=O)CN(C(=O)CN(CCCCCCN)C(=O)CN(C(=O)CN(C(=O)CN(CCCCCCN)C(=O)CN(C(=O)CN(C(=O)CNCCCCCCN)[C@@H](C)c1ccccc1)[C@@H](C)c1ccccc1)[C@@H](C)c1ccccc1)[C@@H](C)c1ccccc1)[C@@H](C)c1ccccc1 [Peptoid 11, (NahNspeNspe)3] (H-[Gly(N-(CH2)6NH2)][Nspe][Nspe][Gly(N-(CH2)6NH2)][Nspe][Nspe][Gly(N-(CH2)6NH2)][Nspe][Nspe]-NH2) | 100 | 100 | – | – |
| NCCCCNCC(=O)N(CC(=O)N(CC(=O)N(CCCCN)CC(=O)N(CC(=O)N(CC(N)=O)Cc1ccccc1)Cc1ccccc1)Cc1ccccc1)Cc1ccccc1 [Peptoid 6, (NLysNpheNphe)2] (H-[Nlys][Nphe][Nphe][Nlys][Nphe][Nphe]-NH2) | 100 | 100 | – | – |
| NCCCCCCNCC(=O)N(CC(=O)N(CC(=O)N(CCCCCCN)CC(=O)N(CC(=O)N(CC(=O)N(CCCCCCN)CC(=O)N(CC(=O)N(CC(N)=O)Cc1ccccc1)Cc1ccccc1)Cc1ccccc1)Cc1ccccc1)Cc1ccccc1)Cc1ccccc1 [Peptoid 2, (NahNpheNphe)3] (H-[Gly(N-(CH2)6NH2)][Nphe][Nphe][Gly(N-(CH2)6NH2)][Nphe][Nphe][Gly(N-(CH2)6NH2)][Nphe][Nphe]-NH2) | 100 | 100 | – | – |
| C[C@@H](c1ccccc1)N(CC(N)=O)C(=O)CN(C(=O)CN(CCCCN)C(=O)CN(C(=O)CN(C(=O)CN(CCCCN)C(=O)CN(C(=O)CN(C(=O)CN(CCCCN)C(=O)CN(C(=O)CN(C(=O)CNCCCCN)[C@@H](C)c1ccccc1)[C@@H](C)c1ccccc1)[C@@H](C)c1ccccc1)[C@@H](C)c1ccccc1)[C@@H](C)c1ccccc1)[C@@H](C)c1ccccc1)[C@@H](C)c1ccccc1 [Peptoid 13, (NLysNspeNspe)4] (H-[Nlys][Nspe][Nspe][Nlys][Nspe][Nspe][Nlys][Nspe][Nspe][Nlys][Nspe][Nspe]-NH2) | – | – | 29 | 20 |
| C[C@@H](c1ccccc1)N(CC(N)=O)C(=O)CN(C(=O)CN(CCN)C(=O)CN(C(=O)CN(C(=O)CN(CCN)C(=O)CN(C(=O)CN(C(=O)CNCCN)[C@@H](C)c1ccccc1)[C@@H](C)c1ccccc1)[C@@H](C)c1ccccc1)[C@@H](C)c1ccccc1)[C@@H](C)c1ccccc1 [Peptoid 17, (NaeNspeNspe)3] | – | – | 100 | 100 |
